Data on 27 compounds can be found in patent publication US11390609B2, “Rho-associated protein kinase inhibitor, pharmaceutical composition comprising same, and preparation method and use thereof” (BEIJING TIDE PHARMACEUTICAL CO., LTD., priority 2017, dated 2022).

The target of the assay is ROCK1 (Homo sapiens (Human), UniProt Q13464). The assay is described as follows: ROCK1 kinase IC50 assay (biological test method similar to the ROCK2 assay). In kind it is biochemical. The method, then:
The kinase IC50 was determined by a commercialized CISBIO kinase detection kit, HTRF KinEASE-STK S2 kit (62ST2PEC). ROCK2 (01-119) employed in the reaction was purchased from Carna Biosciences.
Before the assay, the following working solutions as needed were formulated with corresponding reagents according to the instruction of the kinase detection kit: 1×kinase buffer, 5×STK-52 substrate working solution (1.5 μM) and 5×ATP working solution (1.5 μM), 5×ROCK2 kinase working solution, 4×Streptavidin-XL665 working solution, and 4×STK-Ab-Cryptate 2 detection solution. Then the assay was performed according to the following procedure.
A solution of a compound at a concentration of 10000 nM was prepared with the 1×kinase buffer containing 2.5% DMSO. Gradient dilution of the solution of the compound was performed with the kinase buffer containing DMSO, so as to obtain solutions of a test compound at 9 different concentrations. In addition to wells of test compounds, a positive well (containing all the reagents except the compound) and a negative well (containing all the reagents except the test compound and kinase) were set. Except for the control wells (positive and negative wells), a solution of a test compound (4 μL) was added to each of the reaction wells, and a solution of 2.5% DMSO was added to the control wells. Then the substrate ([…], 2 μL. 5×STK-S2 substrate working solution) was added to each of the reaction wells. The 5×ROCK2 kinase working solution (2 μL, containing 1.4 ng ROCK2 kinase) was added to each of the reaction wells except for the negative well, the volume of which was made up with the 1×kinase buffer (2 μL). The 5×ATP working solution (2 μL) was added to each of the reaction wells, and the mixtures were incubated at room temperature for 2 hours. After the kinase reaction was complete, the 4×Streptavidin-XL665 working solution was added to each of the reaction wells, the solutions were mixed, followed by immediate addition of the 4×STK-Ab-Cryptate 2 detection solution (5 μL), and the mixtures were incubated at room temperature for 1 hour. The fluorescence signal was read on ENVISION (Perkinelmer) (excitation wavelength: 320 nm, and emission wavelength: 665 nm and 615 nm). The inhibitory rate in each well was calculated based on the fluorescence intensity value: ER (Emission Ratio)=(fluorescence intensity at 665 nm/fluorescence intensity at 615 nm); inhibitory rate=(ERpositive−ERtest compound)/(ERpositive−ERnegative)*100%. Curves were plotted and fitted to obtain the median inhibitory concentration (IC50) of each teat compound with the PRISM 5.0 software.
According to a biological test method similar to the above, the IC50 values of the compounds on ROCK1 were tested.

Where only a bound is given, the exact number is not on record here.

ROCK1, sequence (Q13464 whole entry, species assumed): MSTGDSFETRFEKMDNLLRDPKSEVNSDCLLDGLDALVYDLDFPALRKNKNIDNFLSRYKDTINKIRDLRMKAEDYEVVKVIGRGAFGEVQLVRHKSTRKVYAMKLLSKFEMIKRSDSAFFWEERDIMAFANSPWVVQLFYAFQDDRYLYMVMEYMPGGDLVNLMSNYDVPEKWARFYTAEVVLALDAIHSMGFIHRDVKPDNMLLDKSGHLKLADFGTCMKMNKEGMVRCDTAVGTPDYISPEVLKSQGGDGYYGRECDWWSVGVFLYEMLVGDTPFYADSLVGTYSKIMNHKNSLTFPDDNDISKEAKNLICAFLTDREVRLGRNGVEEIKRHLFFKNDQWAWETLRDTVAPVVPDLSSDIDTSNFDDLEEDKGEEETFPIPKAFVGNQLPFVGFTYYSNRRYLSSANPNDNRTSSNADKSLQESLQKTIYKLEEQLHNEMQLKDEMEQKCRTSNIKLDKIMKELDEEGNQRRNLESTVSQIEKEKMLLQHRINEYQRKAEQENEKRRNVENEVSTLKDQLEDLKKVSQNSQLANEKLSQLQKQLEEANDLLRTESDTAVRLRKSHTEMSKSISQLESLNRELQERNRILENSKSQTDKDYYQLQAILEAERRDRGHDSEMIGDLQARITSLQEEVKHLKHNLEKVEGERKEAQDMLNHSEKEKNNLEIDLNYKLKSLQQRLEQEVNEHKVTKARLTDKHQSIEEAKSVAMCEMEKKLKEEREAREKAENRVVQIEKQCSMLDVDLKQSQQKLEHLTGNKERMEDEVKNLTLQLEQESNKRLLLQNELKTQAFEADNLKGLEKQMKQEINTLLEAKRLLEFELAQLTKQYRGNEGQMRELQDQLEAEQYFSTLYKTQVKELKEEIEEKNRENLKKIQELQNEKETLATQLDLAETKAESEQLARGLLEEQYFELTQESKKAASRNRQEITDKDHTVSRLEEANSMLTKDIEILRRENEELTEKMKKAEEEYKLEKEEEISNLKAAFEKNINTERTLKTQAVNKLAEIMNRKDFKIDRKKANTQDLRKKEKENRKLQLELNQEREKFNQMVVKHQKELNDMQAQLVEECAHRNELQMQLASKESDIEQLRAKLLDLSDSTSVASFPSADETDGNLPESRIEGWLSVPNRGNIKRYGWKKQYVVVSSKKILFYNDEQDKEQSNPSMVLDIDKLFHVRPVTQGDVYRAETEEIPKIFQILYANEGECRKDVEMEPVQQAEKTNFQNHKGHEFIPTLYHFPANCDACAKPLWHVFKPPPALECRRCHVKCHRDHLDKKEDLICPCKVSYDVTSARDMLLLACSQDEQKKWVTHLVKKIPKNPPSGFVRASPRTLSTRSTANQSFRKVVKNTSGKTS

As usually defined, the IC50 is the concentration that inhibits the measured activity by half. Low readings indicate inhibition by little substance, high ones a need for much substance. As to `O=C(c1cc2ccc(-c3nccc(Nc4ccc(-c5cn[nH]c5)cc4)n3)cc2[nH]1)N1CCOCC1` [TDI01331, (6-(4-((4-(1H-pyrazol-4-yl)phenyl)-amino)-pyrimidin-2-yl)-1H-indol-2-yl)-(morpholino)-methanone], the half-inhibitory concentration (IC50) was > 10 µM.
The result for `CCN(CC)C(=O)c1cc2ccc(-c3nccc(Nc4ccc(-c5cn[nH]c5)cc4)n3)cc2[nH]1` [TDI01332, 6-(4-((4-(1H-pyrazol-4-yl)phenyl)-amino)-pyrimidin-2-yl)-N,N-diethyl-1H-indole-2-carboxamide] reads 6.27 µM.
In turn, `O=C(NC1CCOC1)c1cc2ccc(-c3nccc(Nc4ccc(-c5cn[nH]c5)cc4)n3)cc2[nH]1` (stereo not drawn) [TDI01337, 6-(4-((4-(1H-pyrazol-4-yl)phenyl)-amino)-pyrimidin-2-yl)-N-(tetrahydro-furan-3-yl)-1H-indole-2-carboxamide] had a 50% inhibitory concentration (IC50) of 2.76 µM.
The result for `O=C(NC1CCOCC1)c1cc2ccc(-c3nccc(Nc4ccc(-c5cn[nH]c5)cc4)n3)cc2[nH]1` [TDI01338, 6-(4-((4-(1H-pvrazol-4-yl)phenyl)-amino)-pyrimidin-2-yl)-N-(tetrahydro-2H-pyran-4-yl)-1H-indole-2-carboxamide] reads 1.8 µM.
Consider `CN1CCN(C(=O)c2cc3ccc(-c4nccc(Nc5ccc(-c6cn[nH]c6)cc5)n4)cc3[nH]2)CC1` [TDI01343, (6-4(-((4-(1H-pyrazol-4-yl)phenyl)-amino)-pyrimidin-2-yl)-1H-indol-2-yl)(4-methyl-piperazin-1-yl)methanone], for which the IC50 stood at 7.11 µM.
Next, `CN(C(=O)c1cc2ccc(-c3nccc(Nc4ccc(-c5cn[nH]c5)cc4)n3)cc2[nH]1)C(CO)CO` [TDI01344-2A, 6-(4-((4-(1H-pyrazol-4-yl)phenyl)-amino)-pyrimidin-2-yl)-N-(1,3-dihydroxy-propan-2-yl)-N-methyl-1H-indole-2-carboxamide]: 4.21 µM; `CN(C(=O)c1cc2ccc(-c3nccc(Nc4ccc(-c5cn[nH]c5)cc4)n3)cc2[nH]1)C1CCNC1` (stereo not drawn) [TDI01345, 6-(4-((4-(1H-pyrazol-4-yl)phenyl)-amino)-pyrimidin-2-yl)-N-methyl-N-(pyrrolidin-3-yl)-1H-indole-2-carboxamide]: 3.91 µM; `CN(C(=O)c1cc2ccc(-c3nccc(Nc4ccc5[nH]ncc5c4)n3)cc2[nH]1)c1ccnnc1` [TDI01347, 6-(4-((1H-indazol-5-yl)amino)-pyrimidin-2-yl)-N-methyl-N-(pyridazin-4-yl)-1H-indole-2-carboxamide]: 5.58 µM.
Next, `O=C(Nc1ccncc1Cl)c1cc2ccc(-c3nccc(Nc4ccc(-c5cn[nH]c5)cc4)n3)cc2[nH]1` [TDI01354, 6-(4-((4-(1H-pyrazol-4-yl)phenyl)-amino)-pyrimidin-2-yl)-N-(3-chloropyridin-4-yl)-1H-indole-2-caiboxamide]: > 10 µM.
In the case of `CN(CC(F)(F)F)C(=O)c1cc2ccc(-c3nccc(Nc4ccc(-c5cn[nH]c5)cc4)n3)cc2[nH]1` [TDI01355, 6-(4-((4-(1H-pyrazol-4-yl)phenyl)-amino)-pyrimidin-2-yl)-N-methyl-N-(2,2,2-trifluoroethyl)-1H-indole-2-carboxamide], the IC50 was > 10 µM.
Next, `O=C(Nc1ccncc1)c1cc2ccc(-c3nccc(Nc4ccc(-c5cn[nH]c5)cc4)n3)cc2[nH]1` [TDI01363, 6-(4-((4-(1H-pyrazol-4-yl)phenyl)-amino)-pyrimidin-2-yl)-N-(pyridin-4-yl)-1H-indole-2-carboxamide]: > 10 µM; `CN(C)C(=O)N1Cc2ccc(-c3nccc(Nc4ccc(-c5cn[nH]c5)cc4)n3)cc2C1` [TDI01366, 5-(4-((4-(1H-pyrazol-4-yl)phenyl)amino)pyrimidin-2-yl)-N,N-dimethylisoindoline-2-carboxamide]: > 10 µM; `CC(C)NC(=O)c1cc2ccc(-c3nc(Nc4ccc(-c5cn[nH]c5)cc4)c4sccc4n3)cc2[nH]1` [TDI01370, 6-(4-((4-(1H-pyrazol-4-yl)phenyl)-amino)-thieno[3,2-d]pyrimidin-2-yl)-N-isopropyl-1H-indole-2-carboxamide]: 1.49 µM.
Next, `CNC(=O)c1cc2ccc(-c3nc(Nc4ccc(-c5cn[nH]c5)cc4)c4sccc4n3)cc2[nH]1` [TDI01379, 6-(4-((4-(1H-pyrazol-4-yl)phenyl)-amino)thieno-[3.2-d]-pyrimidin-2-yl)-N-methyl-1H-indole-2-carboxamide]: > 10 µM; `CN(C(=O)c1cc2ccc(-c3nccc(Nc4ccc(-c5cn[nH]c5)cc4)n3)cc2[nH]1)C1CCOCC1` [TDI01381, 6-(4-((4-(1H-pyrazol-4-yl)phenyl)amino)pyrimidin-2-yl)-N-methyl-N-(tetrahydro-2H-pyran-4-yl)-1H-indole-2-carboxamide]: 4.11 µM.
With `O=C(Nc1ccncc1)c1cc2ccc(-c3nccc(Nc4ccc(-c5cn[nH]c5)cc4)n3)cc2s1` [TDI01393], the IC50 was > 10 µM.
Next, `O=C(Nc1cccnc1)c1cc2ccc(-c3nccc(Nc4ccc(-c5cn[nH]c5)cc4)n3)cc2[nH]1` [TDI01397, 6-(4-((4-(1H-pyrazol-4-yl)phenyl)-amino)-pyrimidin-2-yl)-N-(pyridin-3-yl)-1H-indole-2-carboxamide]: 6 µM; `N#CC1CN(C(=O)c2cc3ccc(-c4nccc(Nc5ccc(-c6cn[nH]c6)cc5)n4)cc3[nH]2)C1` [TDI01398, 1-(6-(4-((4-(1H-pyrazol-4-yl)phenyl)-amino)-pyrimidin-2-yl)-1H-indole-2-carbonyl)-azetidine-3-carbonitrile]: > 10 µM.
Next, `CCNC(=O)N1Cc2ccc(-c3nccc(Nc4ccc(-c5cn[nH]c5)cc4)n3)cc2C1` [TDI01411, 5-(4-((4-(1H-pyrazol-4-yl)phenyl)amino)pyrimidin-2-yl)-N-ethylisoindoline-2-carboxamide]: > 10 µM; `CCN(CCO)C(=O)c1cc2ccc(-c3nccc(Nc4ccc(-c5cn[nH]c5)cc4)n3)cc2[nH]1` [TDI01415, 6-(4-((4-(1H-pyrazol-4-yl)phenyl)-amino)-pyrimidin-2-yl)-N-ethyl-N-(2-hydroxyethyl)-1H-indole-2-carboxamide]: 3.71 µM.
For `CN(C(=O)c1cc2ccc(-c3nccc(Nc4ccc(-c5cn[nH]c5)cc4)n3)cc2[nH]1)C1CC(O)C1` (stereo not drawn) [TDI01418, 6-(4-((4-(1H-pyrazol-4-yl)phenyl)amino)pyrimidin-2-yl)-N-(3-hydroxycyclobutyl)-N-methyl-1H-indole-2-carboxamide], the midpoint of inhibition, the IC50, lay at 5.38 µM.
Next, `CN(C(=O)c1cc2ccc(-c3nccc(Nc4ccc(-c5cn[nH]c5)cc4)n3)cc2[nH]1)C1CCC1` [TDI01420, 6-(4-((4-(1H-pyrazol-4-yl)phenyl)amino)pyrimidin-2-yl)-N-cyclobutyl-N-methyl-1H-indole-2-carboxamide]: 9.29 µM; `CN(C(=O)c1cc2ccc(-c3nccc(Nc4ccc(-c5cn[nH]c5)cc4)n3)cc2[nH]1)c1ccncc1` [TDI01421, 6-(4-((4-(1H-pyrazol-4-yl)phenyl)-amino)-pyrimidin-2-yl)-N-methyl-N-(pyridin-4-yl)-1H-indole-2-carboxamide]: 5.94 µM; `O=C(NC1CCOC1)c1cc2ccc(-c3nc(Nc4ccc(-c5cn[nH]c5)cc4)c4sccc4n3)cc2[nH]1` (stereo not drawn) [TDI01423, 6-(4-((4-(1H-pyrazol-4-yl)phenyl)-amino)-thieno-[3,2-d]-pyrimidin-2-yl)-N-(tetrahydro-furan-3-yl)-1H-indole-2-carboxamide]: > 10 µM.
The result for `O=C(NC1CCC1)c1cc2ccc(-c3nc(Nc4ccc(-c5cn[nH]c5)cc4)c4sccc4n3)cc2[nH]1` [TDI01424, 6-(4-((4-(1H-pyrazol-4-yl)phenyl)-amino)-thieno-[3,2-d]-pyrimidin-2-yl)-N-cyclobutyl-1H-indole-2-carboxamide] reads 4.98 µM; that for `O=C(c1cc2ccc(-c3nccc(Nc4ccc(-c5cn[nH]c5)cc4)n3)cc2[nH]1)N1CCC2(CCNCC2)CC1` [TDI01425, (6-(4-((4-(1H-pyrazol-4-yl)phenyl)-amino)-pyrimidin-2-yl)-1H-indol-2-yl)(3,9-diazaspiro[5.5]undecan-3-yl)methanone], 2.94 µM.
The result for `CN(CC(F)(F)F)C(=O)c1cc2ccc(-c3ncc(F)c(Nc4ccc(-c5cn[nH]c5)cc4)n3)cc2[nH]1` [TDI01426, 6-(4-((4-(1H-pyrazol-4-yl)phenyl)amino)-5-fluoropyrimidin-2-yl)-N-methyl-N-(2,2,2-trifluoroethyl)-1H-indole-2-carboxamide] reads > 10 µM.
